{"source": "patent US20240293424A1", "about": "“CARNITINE-PALMITOYL-TRANSFERASE-1 (CPT-1) INHIBITORS FOR USE IN A METHOD OF PREVENTING OR TREATING SEPSIS IN A MAMMALIAN SUBJECT” (2N PHARMA APS, priority 2021, published 2024)", "key": {"HEK293 cells": {"tested_on": "HEK293 cells", "assay": "Fatty acid uptake assay using HEK293 cells", "assay_type": "cell-based", "details": "Homo sapiens, racemic mixture, FIG. 1", "description": "HEK293 cells were thawed and centrifuged at 400 g in 1 min, whereafter the supernatant was discarded. The cells were resuspended in DMEM+GlutaMax medium (cat #10566016, Invitrogen) containing 10% fetal calf serum (cat #10270-106, Invitrogen) and 1% penicillin/streptomycin (cat #15140-122, Life Technologies). HEK293 cells were seeded into a T25 flask and incubated at 37 degrees Celsius until 80% confluency. When the HEK293 cells reached confluency, cells were counted and seeded in a 96-well plate and with a volume of 10.000 cells/well in medium (as described above) and incubated overnight. Three wells were without cells serving as controls.\nThe cells were divided into two groups: 1) Example 1, and 2) Untreated. The fatty acid uptake assay (cat #408-100, BioVision) was carried out according to the protocol from BioVision. The only exception to the protocol was that the measurements in the PerkinElmer Multimode Plate Reader Enspire instrument was running overnight.\nStatistics was performed in GraphPad Prism version 8.0. Repeated measure two-way ANOVA were conducted as the groups were tested multiple times followed by a multiple comparison Bonferroni post hoc test."}, "[1]": {"tested_on": "CLP-induced mouse model of sepsis", "assay": "Cecal ligation and puncture (CLP)-induced mouse model of sepsis", "assay_type": "in vivo", "details": "CLP mice, 5 mg/kg p.o. 1 h after onset of CLP, assessed 24 h after CLP", "description": "This study was be carried out on 10-week old, male C57BL/6 mice (n=5-10 per group) (Charles River Laboratories UK Ltd., Kent, UK) weighing 20-30 g kept under standard laboratory conditions. The animals were allowed to acclimatise to laboratory conditions for at least one week before undergoing experiments. Six mice were housed together in ventilated cages lined with absorbent bedding material. Tubes and chewing blocks were placed in all cages for environmental enrichment. All animals were subjected to 12-h light and dark cycles and the temperature was maintained at 19-23° C. All animals had access to a chow diet and water ad libitum. The cages were cleaned approximately every three days, with water being changed daily. […]\nTen-week-old, male C57BL/6 mice were injected with buprenorphine (0.05 mg/kg, i.p.). […] Temperature was monitored via a rectal probe and kept at 37° C. by a homeothermic mat. […] After 24 h, cardiac function was assessed by echocardiography in vivo. […] The organs (heart, lungs, liver, kidney, spleen) and blood was collected for further analysis to quantify organ injury/dysfunction. […]\nCardiac function in mice was assessed by echocardiography in vivo by means of the Vevo 3100 imaging system (VisualSonics, Toronto, Ontario, Canada). […] During echocardiography, the heart rate was recorded, and a rectal thermometer was recorded to measure core body temperature. […]"}}, "data": [{"compound": "CC(=O)N1CCC(c2nc(-c3ccncc3)cs2)N(C(=O)COc2ccccc2)CC1", "note": "(single isomer, unassigned) [Example 1, 1-(4-acetyl-7-(4-(pyridin-4-yl)thiazol-2-yl)-1,4-diazepan-1-yl)-2-phenoxyethan-1-one]", "values": [{"measurement": "IC50", "setting": "HEK293 cells", "result": 300, "unit": "nM"}, {"measurement": "heart rate", "setting": "[1]; FIG. 2A", "result": "maintained"}, {"measurement": "pulmonary artery flow", "setting": "[1]; FIG. 2G", "result": "maintained"}]}]}
